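Grown in 96-well plates, cells were treated for 48 hours with each compound at five concentrations. Insufficient inhibition: endpoint recorded as highest concentration tested. Here, GI50 denotes the concentration required for 50% inhibition of growth. The concentration for full growth arrest is given as TGI.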
How the values were obtained:
Experiment in all cases: NCI-60 cell line screen, 48 h
RXF 393 renal = test system: RXF 393 renal
MALME-3M melanoma = test system: MALME-3M melanoma
K-562 leukemia = test system: K-562 leukemia
HS 578T breast = test system: HS 578T breast
HCT-116 colon = test system: HCT-116 colon
SF-295 CNS = test system: SF-295 CNS
RPMI-8226 leukemia = test system: RPMI-8226 leukemia
PC-3 prostate = test system: PC-3 prostate
SNB-19 CNS = test system: SNB-19 CNS
T-47D breast = test system: T-47D breast
UACC-62 melanoma = test system: UACC-62 melanoma
COLO 205 colon = test system: COLO 205 colon
NCI/ADR-RES ovarian = test system: NCI/ADR-RES ovarian
NCI-H460 lung = test system: NCI-H460 lung
HCT-15 colon = test system: HCT-15 colon
SR leukemia = test system: SR leukemia
HT29 colon = test system: HT29 colon
ACHN renal = test system: ACHN renal
HL-60(TB) leukemia = test system: HL-60(TB) leukemia
MCF7 breast = test system: MCF7 breast
SK-OV-3 ovarian = test system: SK-OV-3 ovarian
HOP-92 NSCLC = test system: HOP-92 NSCLC
CAKI-1 renal = test system: CAKI-1 renal
BT-549 breast = test system: BT-549 breast
SK-MEL-5 melanoma = test system: SK-MEL-5 melanoma
TK-10 renal = test system: TK-10 renal
UACC-257 melanoma = test system: UACC-257 melanoma
HCC-2998 colon = test system: HCC-2998 colon
IGROV1 ovarian = test system: IGROV1 ovarian
CCRF-CEM leukemia = test system: CCRF-CEM leukemia
MDA-MB-435 = test system: MDA-MB-435
SF-268 CNS = test system: SF-268 CNS
OVCAR-4 ovarian = test system: OVCAR-4 ovarian
UO-31 renal = test system: UO-31 renal
LOX IMVI melanoma = test system: LOX IMVI melanoma
786-0 renal = test system: 786-0 renal
SK-MEL-28 melanoma = test system: SK-MEL-28 melanoma
SF-539 CNS = test system: SF-539 CNS
DU-145 prostate = test system: DU-145 prostate
SK-MEL-2 melanoma = test system: SK-MEL-2 melanoma
NCI-H23 lung = test system: NCI-H23 lung
U251 CNS = test system: U251 CNS
HOP-62 NSCLC = test system: HOP-62 NSCLC
KM12 colon = test system: KM12 colon
A498 renal = test system: A498 renal
A549 NSCLC = test system: A549 NSCLC
SN12C renal = test system: SN12C renal
NCI-H226 lung = test system: NCI-H226 lung
MDA-MB-231 breast = test system: MDA-MB-231 breast
OVCAR-3 ovarian = test system: OVCAR-3 ovarian
NCI-H522 lung = test system: NCI-H522 lung
EKVX NSCLC = test system: EKVX NSCLC
OVCAR-5 ovarian = test system: OVCAR-5 ovarian
M14 melanoma = test system: M14 melanoma
OVCAR-8 ovarian = test system: OVCAR-8 ovarian
SNB-75 CNS = test system: SNB-75 CNS
SW-620 colon = test system: SW-620 colon

O=C1OCC(C#Cc2ccccc2)=C1Br
GI50 (RXF 393 renal): 3.96 µM
TGI (RXF 393 renal): 31.8 µM
GI50 (MALME-3M melanoma): 2.18 µM
TGI (MALME-3M melanoma): 9.33 µM
GI50 (K-562 leukemia): 2.63 µM
TGI (K-562 leukemia): 11.6 µM
GI50 (HS 578T breast): 6.2 µM
TGI (HS 578T breast): 19 µM
GI50 (HCT-116 colon): 0.541 µM
TGI (HCT-116 colon): > 31.6 µM
GI50 (SF-295 CNS): 17.7 µM
TGI (SF-295 CNS): 48.8 µM
GI50 (RPMI-8226 leukemia): 0.648 µM
TGI (RPMI-8226 leukemia): 3.09 µM
GI50 (PC-3 prostate): 2.56 µM
TGI (PC-3 prostate): 12.7 µM
GI50 (SNB-19 CNS): 21.5 µM
TGI (SNB-19 CNS): > 68.8 µM
GI50 (T-47D breast): 16.3 µM
TGI (T-47D breast): > 67.5 µM
GI50 (UACC-62 melanoma): 10.7 µM
TGI (UACC-62 melanoma): 26.1 µM
GI50 (COLO 205 colon): 5.35 µM
TGI (COLO 205 colon): > 54.7 µM
GI50 (NCI/ADR-RES ovarian): 6.25 µM
TGI (NCI/ADR-RES ovarian): > 63.2 µM
GI50 (NCI-H460 lung): 19.5 µM
TGI (NCI-H460 lung): 48.5 µM
GI50 (HCT-15 colon): 3.96 µM
TGI (HCT-15 colon): > 38.4 µM
GI50 (SR leukemia): 0.186 µM
TGI (SR leukemia): > 100 µM
GI50 (HT29 colon): 7.67 µM
TGI (HT29 colon): 97.4 µM
GI50 (ACHN renal): 9.34 µM
TGI (ACHN renal): > 43.9 µM
GI50 (HL-60(TB) leukemia): 0.0201 µM
TGI (HL-60(TB) leukemia): 0.384 µM
GI50 (MCF7 breast): 2.69 µM
TGI (MCF7 breast): 12.8 µM
GI50 (SK-OV-3 ovarian): 52.9 µM
TGI (SK-OV-3 ovarian): > 100 µM
GI50 (HOP-92 NSCLC): 3.93 µM
TGI (HOP-92 NSCLC): 13.4 µM
GI50 (CAKI-1 renal): 5.61 µM
TGI (CAKI-1 renal): 13.4 µM
GI50 (BT-549 breast): 6.03 µM
TGI (BT-549 breast): 27.4 µM
GI50 (SK-MEL-5 melanoma): 1.82 µM
TGI (SK-MEL-5 melanoma): 6.15 µM
GI50 (TK-10 renal): 0.929 µM
TGI (TK-10 renal): 17.1 µM
GI50 (UACC-257 melanoma): 8.26 µM
TGI (UACC-257 melanoma): 28.2 µM
GI50 (HCC-2998 colon): 19.3 µM
TGI (HCC-2998 colon): 37.3 µM
GI50 (IGROV1 ovarian): 4.77 µM
TGI (IGROV1 ovarian): 33.5 µM
GI50 (CCRF-CEM leukemia): 1.1 µM
TGI (CCRF-CEM leukemia): 5.58 µM
GI50 (MDA-MB-435): 10.8 µM
TGI (MDA-MB-435): 48.3 µM
GI50 (SF-268 CNS): 4.76 µM
TGI (SF-268 CNS): 20.6 µM
GI50 (OVCAR-4 ovarian): 7.13 µM
TGI (OVCAR-4 ovarian): 27.7 µM
GI50 (UO-31 renal): 7.66 µM
TGI (UO-31 renal): 22.7 µM
GI50 (LOX IMVI melanoma): 3.15 µM
TGI (LOX IMVI melanoma): > 35.9 µM
GI50 (786-0 renal): 2.58 µM
TGI (786-0 renal): 12.5 µM
GI50 (SK-MEL-28 melanoma): 4.75 µM
TGI (SK-MEL-28 melanoma): > 100 µM
GI50 (SF-539 CNS): 2.42 µM
TGI (SF-539 CNS): 9.81 µM
GI50 (DU-145 prostate): 3.42 µM
TGI (DU-145 prostate): 13.2 µM
GI50 (SK-MEL-2 melanoma): 18.8 µM
TGI (SK-MEL-2 melanoma): 52.4 µM
GI50 (NCI-H23 lung): 2.94 µM
TGI (NCI-H23 lung): 9.5 µM
GI50 (U251 CNS): 4.88 µM
TGI (U251 CNS): > 39.3 µM
GI50 (HOP-62 NSCLC): 13.2 µM
TGI (HOP-62 NSCLC): 38.2 µM
GI50 (KM12 colon): 3.64 µM
TGI (KM12 colon): 15 µM
GI50 (A498 renal): 19.3 µM
TGI (A498 renal): 54.5 µM
GI50 (A549 NSCLC): 16.7 µM
TGI (A549 NSCLC): 34.6 µM
GI50 (SN12C renal): 3.14 µM
TGI (SN12C renal): 14.1 µM
GI50 (NCI-H226 lung): 23.1 µM
TGI (NCI-H226 lung): 72 µM
GI50 (MDA-MB-231 breast): 3.12 µM
TGI (MDA-MB-231 breast): 14.8 µM
GI50 (OVCAR-3 ovarian): 1.77 µM
TGI (OVCAR-3 ovarian): 8.9 µM
GI50 (NCI-H522 lung): 17.4 µM
TGI (NCI-H522 lung): 49.7 µM
GI50 (EKVX NSCLC): 17.2 µM
TGI (EKVX NSCLC): 35.5 µM
GI50 (OVCAR-5 ovarian): > 100 µM
TGI (OVCAR-5 ovarian): > 100 µM
GI50 (M14 melanoma): 2.83 µM
TGI (M14 melanoma): 16 µM
GI50 (OVCAR-8 ovarian): 2.27 µM
TGI (OVCAR-8 ovarian): 7.26 µM
GI50 (SNB-75 CNS): 18.1 µM
TGI (SNB-75 CNS): > 100 µM
GI50 (SW-620 colon): 1.72 µM
TGI (SW-620 colon): 5.75 µM
